# From patent publication US20110144014A1, “CYTOKINE RECEPTOR MODULATORS AND USES THEREOF” (CENTRE HOSPITALIER UNIVERSITAIRE SAINTE-JUSTINE, priority 2005, published 2011)
# Assays:
# IL-1R/IL-1RacP = test: IL-1-induced PGE2 synthesis in endothelial cells; assay type: cell-based, porcine
# Experimental: Efficiencies and inhibitory activities of the mutated peptides were determined by measuring the inhibition of IL-1-induced PGE2 synthesis. […] All peptides were tested at concentration 10^−6M.
# The arginine of API-101.10 (SEQ ID NO: 10) was replaced by citrulline—to change from a guanidine to a urea group near the N-terminal. Other mutations (e.g. E to Q in API-101.102 and API-101.103) and a truncated peptide at the C-terminal (API-101.108) were also performed to improve the potency and the efficacy of the peptides. Measurement of PGE2 was performed with piglet brain microvessel endothelial cells and WI-38 human fibroblasts. Some of the mutations were advantageous and gave major increases in potency.
# IL-1-induced PGE2 synthesis assay on endothelial cells was used as a screening assay for the peptidomimetics.
# IL-1R = biological target: T1, IL-1R (Homo sapiens, UniProt P14778); test: IL-1R antagonist activity, structure vs. activity text, assay not stated
# T1 sequence (P14778 18-569): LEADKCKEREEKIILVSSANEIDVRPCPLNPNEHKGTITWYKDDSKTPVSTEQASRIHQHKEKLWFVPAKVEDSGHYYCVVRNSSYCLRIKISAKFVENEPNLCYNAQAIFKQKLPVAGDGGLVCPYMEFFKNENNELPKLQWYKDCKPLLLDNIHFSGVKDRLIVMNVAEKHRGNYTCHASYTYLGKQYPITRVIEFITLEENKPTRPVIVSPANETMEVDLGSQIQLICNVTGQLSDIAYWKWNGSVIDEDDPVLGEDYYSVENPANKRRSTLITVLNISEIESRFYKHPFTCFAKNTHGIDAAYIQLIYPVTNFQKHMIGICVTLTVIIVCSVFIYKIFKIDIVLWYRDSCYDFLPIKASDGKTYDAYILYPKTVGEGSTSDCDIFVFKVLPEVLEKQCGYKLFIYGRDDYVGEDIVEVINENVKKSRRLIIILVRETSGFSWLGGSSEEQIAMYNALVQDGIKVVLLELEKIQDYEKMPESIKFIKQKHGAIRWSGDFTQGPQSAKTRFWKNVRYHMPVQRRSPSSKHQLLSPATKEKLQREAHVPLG
# T1 sequence (Q9NPH3 21-570 partner): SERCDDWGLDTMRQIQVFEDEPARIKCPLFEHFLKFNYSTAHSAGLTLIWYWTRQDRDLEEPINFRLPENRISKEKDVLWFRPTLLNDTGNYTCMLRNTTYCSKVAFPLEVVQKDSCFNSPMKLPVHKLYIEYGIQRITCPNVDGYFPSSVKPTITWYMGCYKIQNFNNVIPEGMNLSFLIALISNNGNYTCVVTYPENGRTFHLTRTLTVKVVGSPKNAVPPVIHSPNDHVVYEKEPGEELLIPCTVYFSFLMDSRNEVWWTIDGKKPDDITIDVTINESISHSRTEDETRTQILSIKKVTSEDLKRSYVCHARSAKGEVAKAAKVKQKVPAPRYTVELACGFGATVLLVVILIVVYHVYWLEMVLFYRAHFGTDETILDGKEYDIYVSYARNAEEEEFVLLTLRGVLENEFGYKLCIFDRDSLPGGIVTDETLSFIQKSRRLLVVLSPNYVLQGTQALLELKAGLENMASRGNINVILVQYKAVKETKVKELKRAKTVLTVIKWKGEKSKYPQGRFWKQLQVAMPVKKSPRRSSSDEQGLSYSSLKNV
structure (smiles),measurement,setting,value
"CC(C)C[C@@H](NC(=O)[C@@H](CCC(=O)O)NC(=O)[C@H]1CC[C@H]2CC[C@@H](NC(=O)[C@@H](Cc3ccc(O)cc3)NC(=O)[C@H](N)CCCNC(=N)N)C(=O)N21)C(=O)N[C@H](C)C(N)=O [API-101.110, RY(I^2aa)ELA]",efficacy relative to API-101.107,IL-1R/IL-1RacP,twice the efficacy
same,potency relative to API-101.107,IL-1R/IL-1RacP,10 fold
same,IC50,IL-1R,0.01 nM
